The source of these data is US9598532B2, “Terpolymers as pressure-sensitive adhesives” (Surmodics, Inc., priority 2010, dated 2017).

The data set in a line: In vivo elution of minocycline from the implant device. The conditions noted are these: within 72 hours. Here is the method: The final implant device prepared above was pressed onto a silicone-release liner under normal ambient conditions (30-40% relative humidity). The implant device was vacuum sealed in foil pouches (with argon backflow) in a dry room (<20% relative humidity). The implant device was sterilized using 22-28 kGy of gamma radiation at a slow dose rate of 4-6 kGy/hour. Gamma irradiation was performed on dry ice, but can also be performed at ambient temperature. The bioactive agent content of the implant device was within +/−10% of the target dose. Greater than 80% minocycline eluted in vivo within 72 hours.

`CN(C)c1ccc(O)c2c1C[C@H]1C[C@H]3[C@H](N(C)C)C(O)=C(C(N)=O)C(=O)[C@@]3(O)C(O)=C1C2=O` [Minocycline]: the “minocycline eluted in vivo” value was “Greater than 80%”.
